Patent US20050064501A1, “Medicaments comprising inhibitors of the cell volume-regulated human kinase h-sgk” (PROF. DR. MED. F. LANG, priority 1999, published 2005)
Residue numbers refer to the chain shown, from its start. Numbers in names are those of the source. Entries after “also recorded” stand apart in the source; their conditions may differ.

Key:
h-sgk expression = assay: Transcriptional regulation of h-sgk (Northern blot); type: cell-based; details: FIG. 1; TGFβ1 effect shown after 0.5 to 6 h
Method: (§1) Cells were cultivated in RPMI/5% CO2/10 mM glucose at 37° C., pH 7.4, supplemented with 10% (vol/vol) fetal calf serum (FCS). The cells were grown to 90% confluence and then homogenized in TRIZOL (GIBCO/BRL) (about 0.4×10^6 per sample). Total RNA was prepared in accordance with the manufacturer's instructions. Northern blots were fractionated by electrophoresis through 10 g/l agarose gels with 15 or 20 μg of total RNA with separate control in the presence of 2.4 mol/l formaldehyde. RNA was transferred by vacuum (Appligene Oncor Trans DNA Express Vacuum Blotter, Appligine, Heidelberg, Germany) to positively charged nylon membranes (Boehringer Mannheim, Germany) and crosslinked under ultraviolet light (UV Stratalinker 2400, Stratagene, Heidelberg, Germany). Hybridization was carried out over night with DIG-Easy-Hyb (Boehringer Mannheim) at a probe concentration of 25 μg/l at 50° C. The digoxigenin (DIG)-labeled probes were produced by PCR as described in detail earlier (Waldegger et al. (1997) PNAS 94: 4440-4445). For the autoradiography, the filters were exposed to an X-ray film (Kodak) for an average of 5 min.

h-sgk = molecular target: T1, h-sgk (Homo sapiens, UniProt O00141); assay: Two-electrode voltage clamp of ENaC current in oocytes coexpressing h-sgk; type: cell-based; details: for activation of ENaC (Na+ channel current) by h-sgk: oocytes coexpressing ENaC and h-sgk, treated with kinase inhibitor, FIG. 4
T1 construct: expressed in transfected cells; host or cells: Xenopus laevis oocytes (cRNA injection)
T1 sequence (O00141 1-431): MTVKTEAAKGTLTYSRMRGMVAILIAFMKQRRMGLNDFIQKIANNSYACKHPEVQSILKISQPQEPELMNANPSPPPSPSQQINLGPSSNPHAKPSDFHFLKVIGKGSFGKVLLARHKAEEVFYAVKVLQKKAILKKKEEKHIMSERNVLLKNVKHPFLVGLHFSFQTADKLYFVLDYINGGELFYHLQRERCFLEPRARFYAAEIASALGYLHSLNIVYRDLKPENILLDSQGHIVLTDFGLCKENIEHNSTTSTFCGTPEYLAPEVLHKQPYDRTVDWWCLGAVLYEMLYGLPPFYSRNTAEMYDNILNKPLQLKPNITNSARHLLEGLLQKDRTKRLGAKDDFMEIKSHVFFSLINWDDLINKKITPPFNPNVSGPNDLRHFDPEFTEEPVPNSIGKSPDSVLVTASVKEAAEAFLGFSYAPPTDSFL
Method: (§2) Dissection of Xenopus laevis, and the obtaining and treatment of the oocytes has been described in detail earlier (Busch et al. 1992). The oocytes were each injected with 1 ng of cRNA of NKCC, ENaC or MDEG with or without simultaneous injection of h-sgk. It was possible to carry out two-electrode voltage and current clamp experiments 2-8 days after the injection. Na^+ influx which could be inhibited by furosemide through the NKCC was measured by the ^22Na^+ uptake, which was determined with a scintillation counter, into the oocytes. Na^+ currents (ENaC) were filtered at 10 Hz and recorded with a pen recorder. The experiments were normally carried out on the second day after cRNA injection. The bath solution contained: 96 mM NaCl, 2 mM KCl, 1.8 mM CaCl2, 1 mM MgCl2 and 5 mM HEPES at pH 7.5 and the holding potential was −50 mV. The pH was adjusted by titration with HCl or NaOH in all the experiments. The flow rate of the bath liquid was set at 20 ml/min, which ensured a complete change of solution in the measurement chamber within 10-15 s. All the data are stated in the form of arithmetic means ±SEM.

biglycan expression = assay: Transcriptional regulation of biglycan (Northern blot); type: cell-based; details: FIG. 2; for effect of TGFβ1 on biglycan expression in the presence of the NKCC inhibitor: TGFβ1-stimulated
Method: as §1

NKCC = assay: 22Na+ tracer flux (furosemide-inhibitable Na+ uptake) in oocytes expressing NKCC with or without h-sgk; type: cell-based, Xenopus laevis; details: 22Na+ uptake
Method: as §2

CCCCCCCCCC(=O)O[C@@H]1[C@@H](C)[C@@]2(O)[C@@H](C=C(CO)C[C@@]3(O)C(=O)C(C)=C[C@@H]23)[C@@H]2C(C)(C)[C@]12OC(=O)CCCCCCCCC [PDD, 4-alpha-phorbol 12,13-didecanoate]
expression of h-sgk (h-sgk expression): likewise stimulate

COc1ccc2c(c[n+](C)c3c4cc5c(cc4ccc23)OCO5)c1OC [chelerythrine]
activation of ENaC (Na+ channel current) by h-sgk (h-sgk): suppresses; also recorded: completely to suppress

TGFβ1: tumor growth factor β1
expression of h-sgk (h-sgk expression): stimulated
expression of biglycan (biglycan expression): stimulated

CN[C@@H]1C[C@H]2O[C@@](C)([C@@H]1OC)n1c3ccccc3c3c4c(c5c6ccccc6n2c5c31)C(=O)NC4 [staurosporine]
activation of ENaC (Na+ channel current) by h-sgk (h-sgk): suppresses; also recorded: completely to suppress

NS(=O)(=O)c1cc(C(=O)O)c(NCc2ccco2)cc1Cl [furosemide]
Na+ influx in NKCC-injected oocytes (NKCC; NKCC alone, without h-sgk, FIG. 3 top): not inhibited
increase in Na+ influx on coexpression of h-sgk with NKCC (NKCC; oocytes coexpressing h-sgk and NKCC, FIG. 3 below): completely suppressed
effect of TGFβ1 on biglycan expression in the presence of the NKCC inhibitor (biglycan expression): completely suppressed
increased expression of the matrix proteins in fibroblasts (biglycan expression; fibroblasts): can be suppressed

CCCCNc1cc(C(=O)O)cc(S(N)(=O)=O)c1Oc1ccccc1 [bumetanide]
effect of TGFβ1 on biglycan expression in the presence of the NKCC inhibitor (biglycan expression): almost completely suppressed

C[C@H](CCC(=O)O)C[C@H](C)C[C@H](C)C(=O)/C=C(\O)[C@H](C)C[C@H](C)C/C=C/[C@@H](C)[C@@H](O)[C@@H](C)[C@@H](O)C[C@@H]1CC[C@@](C)([C@H]2CC[C@@](C)([C@@H](C)O)O2)O1 [ionomycin]
expression of h-sgk (h-sgk expression): likewise stimulate

B1: trans-dominant inhibitory kinase: h-sgk modified by mutation: lysine in position 127 replaced by arginine (K127R); suppresses the catalytic function (protein, UniProt O00141 1-431, looked up, variant K127R)
Serine/threonine-protein …: T1 sequence (O00141 1-431) with K127R
stimulating effect of h-sgk coexpression on the ENaC-mediated Na+ current (h-sgk; coexpression of the trans-dominant inhibitory kinase in oocytes, FIG. 5): can be suppressed
